From a melting point compilation (Tetko et al.; mined from patent text by program, amines drawn as free bases though some values may be those of a salt) come the findings set out here.

In general, melting point refers to the temperature of the solid-liquid transition.

Bounds are passed on as bounds.

With `COc1ccccc1N1CCN(C(=O)Nc2cc(C(C)O)c(C)nc2OC)CC1` (stereo not given), the melting point lay in the range of 88 to 90 °C.
`CCCCc1nn(-c2cc(NC(C)=O)ccc2Cl)c(=O)n1Cc1ccc(-c2cc(CCC)ccc2S(=O)(=O)NC(=O)c2ccccc2F)cc1F` showed a melting point of 148 to 150 °C.
`CCOC(=O)c1cn(CC)c2cc(NC(C)=O)c(F)cc2c1=O` gave a melting point of 177 to 180 °C.
Take `Cc1ccc(-c2nc(CCl)c(C)o2)cc1`: the melting point was in the range of 91 to 93 °C.
As for `CC(C)NC(=O)CC(O)(Cn1cncn1)c1ccc(Cl)cc1Cl` (stereo not given), the figure is 105 to 107 °C; as for `COc1cc(OC)c(-c2ccc(N(C)CCN(C)c3ccc(-c4c(OC)cc(OC)cc4OC)nc3)cn2)c(OC)c1`, 264 to 265 °C.
As for `COc1cccc(CNC(=O)c2nc3scc(COCc4ccc(C(=O)O)cc4)c3c(=O)[nH]2)c1`, the figure is 229 to 230 °C; as for `N#Cc1cn(N(CO)c2c(Cl)cc(Cl)cc2Cl)c(=O)[nH]c1=O`, more than 300 °C; as for `Nc1nc(O)c2cc(C#Cc3ccc(C(=O)O)cc3)cnc2n1`, more than 260 °C.
In the case of `COC(=O)c1ccccc1Nc1cccc(N2N=CN(C)N2)c1`, the melting point lay within 106 to 108 °C.
For `Nc1nc2c(ncn2Cc2ccoc2)c(=O)[nH]1` the value was 308 to 310 °C.
Turning to `O=C(O)[C@@H]1CC2(CN1C(=O)CP(=O)(O)CCCCc1ccccc1)SCCS2`, the melting point was 106 to 107 °C.
The compound `CCCC(=O)NCc1nc(-c2ccc3c(c2)Nc2ccccc2S3)cs1` displayed a melting point of 218 to 220 °C.
For `CS(=O)(=O)c1ccnc(-c2nc(=O)c3ccccc3s2)c1` the value was 300 to 301 °C; for `OCc1conc1-c1ccc(-c2ccccc2)cc1`, 138 to 139 °C; for `O=S(=O)(Cc1ccccc1)c1c(Cl)nc(Cl)nc1Cl`, 160 to 162 °C.
In turn, `CCCOCc1nc2nccnc2c(=O)[nH]1` displayed a melting point of 158 to 160 °C.
As for `CS(=O)(=O)CCCCCn1c(C(F)(F)F)nc2c(N)nc3ccccc3c21`, the figure is 192 to 195 °C.
As for `CCN1C(=O)C(C)(C)C(=O)N(C)c2cc(CN(CCn3cc(C)c4occc4c3=O)Cc3cc(C)nn3C)ccc21`, the figure is 193 to 195 °C.
Compound `O=c1ccc(S(=O)(=O)c2ccc(-c3ccccc3)cc2)n[nH]1` registered a melting point of 219 to 220 °C.
For `CC(O)Cn1nc2c3c(ccc([N+](=O)[O-])c31)CCC2` (stereo not given) the value was 144 to 146 °C; for `COc1ccc2cc([C@H](C)C(=O)OCCS(=O)(=O)CCO)ccc2c1`, 81 to 84 °C; for `COCCOC(=O)COc1cc(F)ccc1C(=O)NCc1cccc([N+](=O)[O-])c1`, 112 to 115 °C.
As to `CCCc1nc2c(NOC)nc(C(c3ccccc3)(c3ccccc3)c3ccccc3)nc2n1CO`, the melting point is 188 °C.
As for `O=C(Nc1ccc(CN2C(=O)C=C(CCO)Sc3ccccc32)cc1)c1ccccc1-c1ccccc1`, the figure is 116 to 120 °C; as for `O=C(CCc1cccnc1)NCCCCC1CCN(C2c3ccccc3COc3ccccc32)CC1` (stereo not given), 110 to 112 °C; as for `COC(=O)NNC(=O)CCc1ccccc1`, 118 °C.
For `C[Si](C)(C)c1ccc(N)cc1`, the melting point was in the range of 123 to 124 °C.
For `CC(C)(C)N1CC(c2cccc(C(F)(F)F)c2)OCC1=O` (stereo not given) the value was 81 to 83 °C; for `CCOc1ccc2c(S(=O)(=O)c3ccc(O)cc3)c(C(C)C)cn2c1`, 220 to 221 °C; for `CCn1ncc2c(N)c3c(nc21)CCc1ccccc1C3=O`, 132 to 133 °C.
Turning to `Cc1cc(C)c2cc(N)c(=O)[nH]c2n1`, the melting point fell in the range of 238 to 240 °C.
Turning to `NCCCNC(=O)c1cccc(Nc2nccc(-c3ccnc(NCCCO)c3)n2)c1`, the melting point was in the range of 169 to 170 °C.
For `CCOC(=O)C1(O)C(=O)Nc2c(OC)cc(CCNC(=O)C(F)(F)F)cc21` (stereo not given) the value was 115 to 117 °C; for `CCCCCCCCCCCCCCCCC(=O)Nc1ccn(C2OC(CO)C(O)C2O)c(=O)n1` (stereo not given), 144 to 147 °C; for `CCC(Oc1ccc(C(C)(C)CC)cc1C(C)(C)CC)C(=O)Nc1cc(OC(C)=O)c(C)c(Cl)c1O` (stereo not given), 188 to 190 °C.
As for `Cc1ccc2c(c1)c(N1CCNCC1)c(C#N)c(=O)n2Cc1ccc(F)cc1`, the figure is 121 °C; as for `CC(C)(S)CNC(=O)c1ccccc1-c1ccccc1C(=O)O`, 150 to 153 °C.
Compound `COc1ccc(OC)c2c1CCOC2CCl` (stereo not given) gave a melting point of 101 to 102 °C.
As for `COc1ccc2c(-c3c(-c4ccccn4)nn4c3CCCCC4)ccnc2c1`, the figure is 127 to 129 °C; as for `COc1ccc2sc3c(c2c1)OC(C)CNC3=O` (stereo not given), 185 to 186 °C; as for `O=C(O)Cc1ccc2c(c1)C(=O)Cc1cccnc1S2`, 212 to 214 °C.
For `CCOC(=O)c1cn(-c2cc(C)on2)cn1` the value was 142 to 143 °C; for `N#CC1=C(C#N)NC(c2ccccc2)C(O)=N1` (stereo not given), 222 to 224 °C.
As to `CC(=O)Nc1cccc(OCc2ccccc2)c1C`, the melting point lay within 142 to 143 °C.
Compound `c1ccc2c(c1)C[C@H]1CSC(=Nc3cccc4ccncc34)N1C2` yielded a melting point of 206 °C.
`CCN1CCc2ccc(Nc3ncc(Cl)c(NCC(C)(C)NS(C)(=O)=O)n3)cc2CC1` gave a melting point of 118 to 121 °C.
For `Cc1ccc(S(=O)(=O)NCc2nc(C(C)C)c(Sc3cc(Cl)cc(Cl)c3)n2C)cc1` the value was 85 to 87 °C; for `O=C(CBr)Nc1cccc(F)c1C(=O)O`, 169 to 170 °C; for `CC(=O)OC1CCC2(C)C(=CCC3C2C(OC(C)=O)CC2(C)C3CCC2(O)C(=O)CO)C1` (stereo not given), 231 to 233 °C.
In turn, `CNC(=O)N(N=C(C)C)C(=O)c1ccc(Cl)cc1` had a melting point of 119 to 123 °C.
The compound `O=C1OCC(c2ccccc2)N1CC1C2CCC(O2)C1CO` (stereo not given) registered a melting point of 131 to 133 °C.
`Nc1nc2ccc(CO)cc2n1Cc1cccc2cccnc12` had a melting point of 230 °C.
Turning to `CN1C2CC(OC(=O)Cc3ccccc3)CC1C(O)C2O` (stereo not given), the melting point was 120 to 122 °C.
Turning to `CCc1ccc2ncc(-c3nnn[nH]3)c(=O)n2c1`, the melting point fell in the range of 289 to 290 °C.
As for `CC(=O)c1cc(NC(=O)NCCCN(CCCNC(=O)Nc2cc(C(C)=O)cc(C(C)=O)c2)CCCNC(=O)Nc2cc(C(C)=O)cc(C(C)=O)c2)cc(C(C)=O)c1`, the figure is 147 to 148 °C; as for `CSC1(CC(=O)O)CCC1`, 43 to 46 °C.
For `CC(=O)Oc1ccc2c(C)cc(=O)oc2c1CC(Br)CBr` (stereo not given) the value was 145 to 148 °C.
`COC(=O)c1ccccc1OCCOc1cccc2ccccc12` showed a melting point of 132 to 137 °C.
As for `Brc1oc2ccc(Cc3nnn[nH]3)cc2c1-c1ccccc1`, the figure is 215 to 217 °C; as for `CC(=O)N1C=CC(C(C)=O)(c2ccccc2)C=C1`, 93 to 95 °C.
For the compound `O=C(Cl)CC(c1ccccc1)c1ccccc1`, the melting point lay within 41 to 43 °C.
`COC(=O)CCc1oc(C)nc1-c1ccc(Cl)cc1`: the melting point lay in the range of 74 to 75 °C.
Compound `CCOC(=O)C1=C(COCc2nnn[nH]2)NC(C)=C(C(=O)OC)C1c1ccccc1Cl` (stereo not given) returned a melting point of 122 to 124 °C.
For `O=C(O)c1cccnc1N1CCN(CCOCCO)CC1` the value was 172 to 174 °C; for `Cc1cc(C)c2c(n1)N(CCN(C)C)C(=O)N(C)C2`, 105 to 107 °C.
Regarding `O=c1[nH]c2ccccc2cc1CN1CCN(c2ccc(Cl)cc2)CC1`, the melting point lay in the range of 256 to 259 °C.
As for `CCOC(=O)N1Cc2ccccc2C(Oc2ccc(Cl)cc2)C1` (stereo not given), the figure is 78.5 to 79.5 °C; as for `CC(C)C(=O)NC1CCc2c(c3cc(C(N)=O)ccc3n2Cc2cccc(F)c2)C1` (stereo not given), 192 to 194 °C.
For `CCCC1(Br)Cc2c3c(c(C)c(C)c2C1=O)OC(C(=O)O)C3` (stereo not given) the value was 78 °C; for `CC(c1ccccc1)C(C(=O)c1ccccc1)n1cncn1` (stereo not given), 166 to 168 °C; for `COc1ccc(-c2nc3ccc(-n4cncn4)cc3[nH]2)cc1OC(C)C`, 118 to 126 °C.
As for `O=C(Nc1ccccc1)N1C(=S)C2(CCCCC2)NC12CCCCC2`, the figure is 143 to 144 °C; as for `CCSc1nc(Nc2ccc(F)cc2F)c(C(=O)OC)cc1F`, 113 to 114 °C.
Take `CCn1nc(-c2cnc(N)nc2-c2ccccc2)ccc1=O`: the melting point fell in the range of 255 to 256 °C.
`O=C=Nc1ccc(F)cc1` displayed a melting point of 93 to 94 °C.
For `CSC1CCC(=O)C(C(=O)c2ccc(S(C)(=O)=O)cc2Cl)C1=O` (stereo not given) the value was 146 to 149 °C; for `CC(=O)Oc1c(C(C)C)cc(-c2c3ccccc3cc3sc(C)c(C)c23)cc1C(C)C`, 243 to 245 °C.
For `CC(=NC1CCCCC1)Nc1ccccc1C` the value was 130 to 131 °C; for `CON=C(Nc1nc(C)cc(C)n1)NS(=O)(=O)c1ccccc1S(=O)(=O)OC`, 130 to 138 °C; for `COCCN1CCN(c2c(F)cc(N3C[C@H](CNC(C)=O)OC3=O)cc2F)CC1`, 162 to 164 °C.
For `CCOC(=O)C(C(=O)OCC)C(=O)c1cc(OC)c(OC)c([N+](=O)[O-])c1` the value was 70 °C.
As for `O=C(NCc1ccccc1N1CCOCC1)c1ccn2nc(-c3ccccc3)cc2n1`, the melting point is 190 to 192 °C.
For `O=C(O)c1cc(O)c(-c2ccccc2)c([N+](=O)[O-])c1` the value was 213 to 215 °C.
For `C#CCN(c1cc(-c2ccnc3c(C(=O)c4cccs4)cnn23)ccc1F)S(C)(=O)=O` the value was 149 to 153 °C.
For `Cc1ccnc(-c2cncc(OC3SCC(O)C(O)C3O)c2)c1` (stereo not given) the value was 166 °C; for `COCCOC(=O)C1=C(C)NC(C)C(C(=O)OC(C)C)(c2ccc(F)cc2F)C1` (stereo not given), 123 to 126 °C; for `Cc1ccc(C)c(C(=O)NCCC23CC4CC(CC(C4)C2)C3)c1`, 153 °C.
Take `Cn1nnnc1SCCCn1cc(C2=C(c3cn(C)c4ccccc34)C(=O)NC2=O)c2ccccc21`: the melting point fell in the range of 95 to 97 °C.
As for `C=CC(O)c1cc(OC)c2oc(-c3ccc(O)c(OC)c3)c(C)c2c1` (stereo not given), the figure is 164 to 167 °C.
